Calls of active or inactive are those of the source. The rule behind the calls is not given here. Bridge positions count the residues as written; N and C are the ends. Square brackets hold non-standard residues; d marks the D form. Peptide text beside a SMILES is read from it.

The record followed here is ChEMBL document CHEMBL1140186, “Hunter-killer peptide (HKP) for targeted therapy” (2008).

Test [1] has as its system Mus musculus. The experiment in a line: Induction of weight loss in sc dosed high fat diet fed mouse after 4 weeks. It counts as functional.
The test system of test [2] is Mus musculus. The experiment in a line: Reduction in epididymal fat pad size in sc dosed high fat diet fed mouse after 4 weeks relative to control. The test is classed as functional. Further details: scale not given: the % may be the effect or the level left.
A further test has as its system MDA-MB-435. The experiment in a line: Antitumor activity against human MDA-MB-435 cells xenografted mouse assessed as survival after 120 days. The test is classed as functional.
For test [3], the species on record is Mus musculus. The experiment in a line: Increase in survival of transgenic mouse prostate adenocarcinoma model after 6 to 8 weeks. It counts as functional, organism-based. The following applies: Prostate gland.

As for `CC(C)C[C@@H](NC(=O)[C@@H](CCCCN)NC(=O)CNC(=O)CNC(=O)[C@@H]1CSSC[C@H](N)C(=O)N[C@@H](CCCCN)C(=O)NCC(=O)NCC(=O)N[C@@H](CCCNC(=N)N)C(=O)N[C@@H](C)C(=O)N[C@@H](CCCCN)C(=O)N[C@@H](CC(=O)O)C(=O)N1)C(=O)N[C@H](C)C(=O)N[C@H](CCCCN)C(=O)N[C@H](CC(C)C)C(=O)N[C@H](C)C(=O)N[C@H](CCCCN)C(=O)N[C@H](CCCCN)C(=O)N[C@H](CC(C)C)C(=O)N[C@H](C)C(=O)N[C@H](CCCCN)C(=O)N[C@H](CC(C)C)C(=O)N[C@H](C)C(=O)N[C@H](CCCCN)C(=O)O` (H-CKGGRAKDCGG[dK][dL][dA][dK][dL][dA][dK][dK][dL][dA][dK][dL][dA][dK]-OH; disulfide 1-9), the Activity is listed as 30% in the test with Mus musculus [1] and over 70% with Mus musculus [2].

In the case of `CC(C)C[C@@H](NC(=O)[C@@H](CCCCN)NC(=O)CNC(=O)CNC(=O)[C@@H]1CSSC[C@H](N)C(=O)N[C@@H](CC(N)=O)C(=O)NCC(=O)N[C@@H](CCCNC(=N)N)C(=O)N1)C(=O)N[C@H](C)C(=O)N[C@H](CCCCN)C(=O)N[C@H](CC(C)C)C(=O)N[C@H](C)C(=O)N[C@H](CCCCN)C(=O)N[C@H](CCCCN)C(=O)N[C@H](CC(C)C)C(=O)N[C@H](C)C(=O)N[C@H](CCCCN)C(=O)N[C@H](CC(C)C)C(=O)N[C@H](C)C(=O)N[C@H](CCCCN)C(=O)O` (H-CNGRCGG[dK][dL][dA][dK][dL][dA][dK][dK][dL][dA][dK][dL][dA][dK]-OH; disulfide 1-5), the Survival in the test on MDA-MB-435 is listed as 60%.

Regarding `CC[C@H](C)[C@H](NC(=O)[C@H](CO)NC(=O)[C@H](CCSC)NC(=O)[C@@H](N)CO)C(=O)N[C@@H](C)C(=O)N[C@@H](CCCNC(=N)N)C(=O)N[C@@H](CC(C)C)C(=O)NCC(=O)NCC(=O)N[C@H](CCCCN)C(=O)N[C@H](CC(C)C)C(=O)N[C@H](C)C(=O)N[C@H](CCCCN)C(=O)N[C@H](CC(C)C)C(=O)N[C@H](C)C(=O)N[C@H](CCCCN)C(=O)N[C@H](CCCCN)C(=O)N[C@H](CC(C)C)C(=O)N[C@H](C)C(=O)N[C@H](CCCCN)C(=O)N[C@H](CC(C)C)C(=O)N[C@H](C)C(=O)N[C@H](CCCCN)C(=O)O` (H-SMSIARLGG[dK][dL][dA][dK][dL][dA][dK][dK][dL][dA][dK][dL][dA][dK]-OH), the outcome in the test filed under Mus musculus [3] was Active.
